From PubChem BioAssay (NCI)
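GI50 is the concentration that inhibits growth by half. TGI is the concentration that stops growth completely.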

Tests used:
Assay in all cases: inhibition of tumour cell growth, NCI panel, 384-well format
786-0 renal = test system: 786-0 renal
A498 renal = test system: A498 renal
A549 NSCLC = test system: A549 NSCLC
ACHN renal = test system: ACHN renal
BT-549 breast = test system: BT-549 breast
CAKI-1 renal = test system: CAKI-1 renal
CCRF-CEM leukemia = test system: CCRF-CEM leukemia
COLO 205 colon = test system: COLO 205 colon
DU-145 prostate = test system: DU-145 prostate
EKVX NSCLC = test system: EKVX NSCLC
HCT-116 colon = test system: HCT-116 colon
HCT-15 colon = test system: HCT-15 colon
HL-60(TB) leukemia = test system: HL-60(TB) leukemia
HOP-62 NSCLC = test system: HOP-62 NSCLC
HOP-92 NSCLC = test system: HOP-92 NSCLC
HS 578T breast = test system: HS 578T breast
HT29 colon = test system: HT29 colon
IGROV1 ovarian = test system: IGROV1 ovarian
KM12 colon = test system: KM12 colon
LOX IMVI melanoma = test system: LOX IMVI melanoma
M14 melanoma = test system: M14 melanoma
MALME-3M melanoma = test system: MALME-3M melanoma
MCF7 breast = test system: MCF7 breast
MDA-MB-231 breast = test system: MDA-MB-231 breast
MDA-MB-435 melanoma = test system: MDA-MB-435 melanoma
MDA-MB-468 breast = test system: MDA-MB-468 breast
MOLT-4 leukemia = test system: MOLT-4 leukemia
NCI-H226 lung = test system: NCI-H226 lung
NCI-H23 lung = test system: NCI-H23 lung
NCI-H322M lung = test system: NCI-H322M lung
NCI-H460 NSCLC = test system: NCI-H460 NSCLC
NCI-H522 lung = test system: NCI-H522 lung
NCI/ADR-RES ovarian = test system: NCI/ADR-RES ovarian
OVCAR-3 ovarian = test system: OVCAR-3 ovarian
OVCAR-4 ovarian = test system: OVCAR-4 ovarian
OVCAR-5 ovarian = test system: OVCAR-5 ovarian
OVCAR-8 ovarian = test system: OVCAR-8 ovarian
PC-3 prostate = test system: PC-3 prostate
RPMI-8226 leukemia = test system: RPMI-8226 leukemia
RXF 393 renal = test system: RXF 393 renal
SF-268 CNS = test system: SF-268 CNS
SF-295 CNS = test system: SF-295 CNS
SF-539 CNS = test system: SF-539 CNS
SK-MEL-28 melanoma = test system: SK-MEL-28 melanoma
SK-MEL-5 melanoma = test system: SK-MEL-5 melanoma
SK-OV-3 ovarian = test system: SK-OV-3 ovarian
SN12C renal = test system: SN12C renal
SNB-19 CNS = test system: SNB-19 CNS
SNB-75 CNS = test system: SNB-75 CNS
SR leukemia = test system: SR leukemia
SW-620 colon = test system: SW-620 colon
T-47D breast = test system: T-47D breast
TK-10 renal = test system: TK-10 renal
U251 glioblastoma = test system: U251 glioblastoma
UACC-257 melanoma = test system: UACC-257 melanoma
UACC-62 melanoma = test system: UACC-62 melanoma
UO-31 renal = test system: UO-31 renal

SMILES: COc1cc(N2CCC(N3CCN(C)CC3)CC2)ccc1Nc1ncc(Cl)c(Nc2ccccc2P(C)(C)=O)n1
- GI50 (786-0 renal): 3.22 µM
- TGI (786-0 renal): > 43.8 µM
- GI50 (A498 renal): 2.32 µM
- TGI (A498 renal): 6.1 µM
- GI50 (A549 NSCLC): 2.1 µM
- TGI (A549 NSCLC): > 23.4 µM
- GI50 (ACHN renal): 3.21 µM
- TGI (ACHN renal): > 43.9 µM
- GI50 (BT-549 breast): 2.28 µM
- TGI (BT-549 breast): 5.08 µM
- GI50 (CAKI-1 renal): 2.38 µM
- TGI (CAKI-1 renal): 6.28 µM
- GI50 (CCRF-CEM leukemia): 3.45 µM
- TGI (CCRF-CEM leukemia): 9.7 µM
- GI50 (COLO 205 colon): 1.65 µM
- TGI (COLO 205 colon): 4 µM
- GI50 (DU-145 prostate): 2.5 µM
- TGI (DU-145 prostate): 10.5 µM
- GI50 (EKVX NSCLC): 1.46 µM
- TGI (EKVX NSCLC): 3.48 µM
- GI50 (HCT-116 colon): 2.82 µM
- TGI (HCT-116 colon): > 77 µM
- GI50 (HCT-15 colon): 5.29 µM
- TGI (HCT-15 colon): > 100 µM
- GI50 (HL-60(TB) leukemia): 3.35 µM
- TGI (HL-60(TB) leukemia): > 35.6 µM
- GI50 (HOP-62 NSCLC): 2.33 µM
- TGI (HOP-62 NSCLC): > 50.2 µM
- GI50 (HOP-92 NSCLC): 1.17 µM
- TGI (HOP-92 NSCLC): 3 µM
- GI50 (HS 578T breast): 1.86 µM
- TGI (HS 578T breast): 4.89 µM
- GI50 (HT29 colon): 1.11 µM
- TGI (HT29 colon): > 100 µM
- GI50 (IGROV1 ovarian): 1.18 µM
- TGI (IGROV1 ovarian): 3.7 µM
- GI50 (KM12 colon): 3.74 µM
- TGI (KM12 colon): > 100 µM
- GI50 (LOX IMVI melanoma): 3.07 µM
- TGI (LOX IMVI melanoma): 17.8 µM
- GI50 (M14 melanoma): 3.48 µM
- TGI (M14 melanoma): > 100 µM
- GI50 (MALME-3M melanoma): 3.09 µM
- TGI (MALME-3M melanoma): > 66.9 µM
- GI50 (MCF7 breast): 2.07 µM
- TGI (MCF7 breast): > 100 µM
- GI50 (MDA-MB-231 breast): 2.03 µM
- TGI (MDA-MB-231 breast): 6.47 µM
- GI50 (MDA-MB-435 melanoma): 25.5 µM
- TGI (MDA-MB-435 melanoma): > 100 µM
- GI50 (MDA-MB-468 breast): 2.01 µM
- TGI (MDA-MB-468 breast): 6.18 µM
- GI50 (MOLT-4 leukemia): 1.9 µM
- TGI (MOLT-4 leukemia): 4.1 µM
- GI50 (NCI-H226 lung): 0.49 µM
- TGI (NCI-H226 lung): 2.53 µM
- GI50 (NCI-H23 lung): 1.87 µM
- TGI (NCI-H23 lung): 5.19 µM
- GI50 (NCI-H322M lung): 2.08 µM
- TGI (NCI-H322M lung): 6.39 µM
- GI50 (NCI-H460 NSCLC): 4.35 µM
- TGI (NCI-H460 NSCLC): > 100 µM
- GI50 (NCI-H522 lung): 1.16 µM
- TGI (NCI-H522 lung): 4.17 µM
- GI50 (NCI/ADR-RES ovarian): > 100 µM
- TGI (NCI/ADR-RES ovarian): > 100 µM
- GI50 (OVCAR-3 ovarian): 2.22 µM
- TGI (OVCAR-3 ovarian): > 28.5 µM
- GI50 (OVCAR-4 ovarian): 2.41 µM
- TGI (OVCAR-4 ovarian): 8.64 µM
- GI50 (OVCAR-5 ovarian): 2.39 µM
- TGI (OVCAR-5 ovarian): > 46.9 µM
- GI50 (OVCAR-8 ovarian): 6.55 µM
- TGI (OVCAR-8 ovarian): > 100 µM
- GI50 (PC-3 prostate): 5.55 µM
- TGI (PC-3 prostate): > 100 µM
- GI50 (RPMI-8226 leukemia): 1.77 µM
- TGI (RPMI-8226 leukemia): 5.38 µM
- GI50 (RXF 393 renal): 2.09 µM
- TGI (RXF 393 renal): 4.52 µM
- GI50 (SF-268 CNS): 2.38 µM
- TGI (SF-268 CNS): > 25.7 µM
- GI50 (SF-295 CNS): 2.92 µM
- TGI (SF-295 CNS): > 29.5 µM
- GI50 (SF-539 CNS): 1.97 µM
- TGI (SF-539 CNS): 4.23 µM
- GI50 (SK-MEL-28 melanoma): > 100 µM
- TGI (SK-MEL-28 melanoma): > 100 µM
- GI50 (SK-MEL-5 melanoma): 4.72 µM
- TGI (SK-MEL-5 melanoma): > 100 µM
- GI50 (SK-OV-3 ovarian): 2.45 µM
- TGI (SK-OV-3 ovarian): 5.89 µM
- GI50 (SN12C renal): 2.3 µM
- TGI (SN12C renal): 11.1 µM
- GI50 (SNB-19 CNS): 5.97 µM
- TGI (SNB-19 CNS): > 100 µM
- GI50 (SNB-75 CNS): 2.75 µM
- TGI (SNB-75 CNS): 6.73 µM
- GI50 (SR leukemia): 0.0248 µM
- TGI (SR leukemia): 0.0545 µM
- GI50 (SW-620 colon): 4.95 µM
- TGI (SW-620 colon): > 100 µM
- GI50 (T-47D breast): > 25.8 µM
- TGI (T-47D breast): > 100 µM
- GI50 (TK-10 renal): 3.92 µM
- TGI (TK-10 renal): > 100 µM
- GI50 (U251 glioblastoma): 6.2 µM
- TGI (U251 glioblastoma): > 100 µM
- GI50 (UACC-257 melanoma): > 100 µM
- TGI (UACC-257 melanoma): > 100 µM
- GI50 (UACC-62 melanoma): 3.5 µM
- TGI (UACC-62 melanoma): > 100 µM
- GI50 (UO-31 renal): 4.2 µM
- TGI (UO-31 renal): > 62 µM
